Assay results from US20180303874A1, “Compositions and Methods for the Prevention of Microbial Infections” (LANKENAU INSTITUTE FOR MEDICAL RESEARCH, priority 2011, published 2018).

Assays:
HSV = conditions: co-incubated; cited from earlier work
claudin-2 = test: Western blot analysis of tight junctional protein claudin-2 in Caco-2 cells; format: cell-based, human; conditions: 50 or 100 μM zinc, one week, vs control
Procedure: (§1) Human gastrointestinal epithelial cells were allowed to grow to maximal density and re-fed with culture media at different zinc concentrations for pre-determined time points (0, 3, 6, 24 or 48 hours, or 7 days). Flasks were washed two times each with ice cold saline, then flash-frozen in an ethanol-dry ice bath, and stored at −80° C. until fractionation. At that time, flasks were quick-thawed and 2 ml of 4° C. Buffer A (20 mM Tris-HCl, pH 7.5, 0.25 M sucrose, 10 mM EGTA, 2 mM EDTA) with protease and phosphatase inhibitors (final concentrations: 0.8 μM aprotinin, 20 μM leupeptin, 50 μM bestatin, 1 mM AEBSF, 10 μM pepstatin) (Calbiochem) was added to each, cells were scraped into the buffer, the suspension mechanically disrupted and then sonicated for 60 seconds on ice and transferred to an ultracentrifuge tube. Tubes were centrifuged in a chilled Beckman 50TI rotor at 39,000 rpm for one hour at 4° C. […] The supernatant from this final spin was the “membrane fraction.” Total protein was measured using the BioRad DC™ Protein Assay Kit.
(§2) Samples of these fractions were analyzed by polyacrylamide gel electrophoresis using a Novex XCell SureLock™ Mini-Cell apparatus and a 4-20% gradient Novex Tris-Glycine, pre-cast, 10-well, 1.5 mm thick gel (Invitrogen). […]
(§3) Films were analyzed for protein expression level by measuring optical density units with a Personal Densitometer™ SI (Molecular Dynamics).

claudin-7 = test: Western blot analysis of tight junctional protein claudin-7 in Caco-2 cells; format: cell-based, human; conditions: 50 or 100 μM zinc, one week, vs control
Procedure: as §1, §2, §3

Caco-2 cell sheets = test: Transepithelial electrophysiology of Caco-2 cell sheets; format: cell-based, human; conditions: vs control
Procedure: Cells were seeded at the density of 5×10^5 onto sterile Millipore Millicell polycarbonate (PCF) permeable supports (pore size 0.4 μm with a diameter of 30 mm) on Day 0. Cells were allowed to grow for 21-24 days prior to experiments (Hubatsch et al. (2007) Nat. Protoc., 2:2111-9). Three or four Millicell PCF units (2 ml/unit) were placed in a 100 mm sterile petri dish (15 ml/dish). Cells were fed bilaterally 3 times per week with control medium until at least Day 14 and switched to different zinc-supplemented media (Ctrl, 50 or 100 μM elemental zinc) for another week. […]
On the day of experiment, cells were re-fed in fresh culture medium and allowed to incubate at 37° C. for 2 hr prior to the actual experiment. Transepithelial voltage and transepithelial electrical resistance were measured as previously described (Skrovanek et al. (2007) Am. J. Physiol. Regul. Integr. Comp. Physiol., 293:R1046-55). In brief, using silver/silver chloride electrodes in series with 1M NaCl agar bridges, a 40 microamp externally applied current pulse was delivered across the cell layer and the resultant change in the voltage across the cell layer was measured using calomel electrodes in series with 1M NaCl/agar bridges and a Keithley® 197A auto-ranging digital multimeter. […]

| Molecule | inactivation of HSV (HSV) | also measured |
| --- | --- | --- |
| CC(O)C(=O)[O-].CC(O)C(=O)[O-].[Zn+2] (centres unmarked) [zinc lactate] | directly inactivate | – |
| O=S(=O)([O-])[O-].[Zn+2] [zinc sulfate] | directly inactivate | – |
| CC(=O)[O-].CC(=O)[O-].[Zn+2] [zinc acetate] | directly inactivate | – |
| zinc gluconate | directly inactivate | – |
| [Zn] [zinc] | – | expression of claudin-2 (claudin-2): significantly reduced; expression of claudin-7 (claudin-7): reduction, albeit to a lesser extent than claudin-2; short circuit current (Caco-2 cell sheets; 50 or 100 μM zinc, one week): comparable short circuit currents; transepithelial electrical resistance (Caco-2 cell sheets; one-week zinc supplementation (50 or 100 μM)): significant increase |
